Tests used:
Type in all cases: toxicity, cell-based
HEK-293T = test: Incucyte cell viability with HEK293T; conditions: human, 10 µM, compound concentration 10 uM
Fibroblast = test: Incucyte cell viability with human fibroblast; conditions: 10 µM, compound concentration 10 uM
U2OS = test: Incucyte cell viability with U2OS; conditions: human, 10 µM, compound concentration 10 uM
Note: unitless GR value; below 1 slowed growth and below 0 cell loss.

| Compound | Growth Rate (HEK-293T; 6 h, replicate number 1) | Growth Rate (Fibroblast; 0 h, replicate number 2) | Growth Rate (Fibroblast; 18 h, replicate number 1) | Growth Rate (U2OS; 0 h, replicate number 1) | Growth Rate (U2OS; 0 h, replicate number 2) | Growth Rate (U2OS; 6 h, replicate number 2) | Growth Rate (U2OS; 12 h, replicate number 1) | Growth Rate (U2OS; 18 h, replicate number 1) | Growth Rate (U2OS; 18 h, replicate number 2) | Growth Rate (U2OS; 24 h, replicate number 1) | Growth Rate (HEK-293T; 6 h, replicate number 2) | Growth Rate (Fibroblast; 6 h, replicate number 1) | Growth Rate (U2OS; 6 h, replicate number 1) | Growth Rate (U2OS; 24 h, replicate number 2) | Growth Rate (HEK-293T; 12 h, replicate number 2) | Growth Rate (HEK-293T; 18 h, replicate number 2) | Growth Rate (Fibroblast; 12 h, replicate number 1) | Growth Rate (HEK-293T; 0 h, replicate number 1) | Growth Rate (HEK-293T; 24 h, replicate number 2) | Growth Rate (Fibroblast; 6 h, replicate number 2) | further results |
| --- | --- | --- | --- | --- | --- | --- | --- | --- | --- | --- | --- | --- | --- | --- | --- | --- | --- | --- | --- | --- | --- |
| CCOC(=O)c1cncn1[C@H](C)c1ccccc1 [ETOMIDATE] | 0.68 | 0.93 | 0.21 | 0.35 | -0.28 | 0.83 | 0.97 | 0.9 | 0.87 | 0.98 | – | – | – | – | – | – | – | – | – | – | Growth Rate (Fibroblast; 0 h, replicate number 1): 0.28; Growth Rate (Fibroblast; 24 h, replicate number 1): -0.16 |
| C[C@H]1CN(C2COC2)CCN1c1ccc(Nc2cc(-c3ccnc(N4CCn5c(cc6c5CC(C)(C)C6)C4=O)c3CO)cn(C)c2=O)nc1 [FENEBRUTINIB] | 0.81 | -0.77 | – | – | – | – | 0.69 | – | 0.98 | 0.81 | 0.76 | 0.44 | 0.53 | 1 | – | – | – | – | – | – | Growth Rate (Fibroblast; 0 h, replicate number 1): -1; Growth Rate (Fibroblast; 12 h, replicate number 2): 0.46; Growth Rate (Fibroblast; 18 h, replicate number 2): 0.94; Growth Rate (U2OS; 12 h, replicate number 2): 0.99 |
| COCCNc1cc(NC(=O)N2CCCc3cc(CN4CCN(C)CC4=O)c(C=O)nc32)ncc1C#N [FGF401] | 0.68 | 0.95 | 0.24 | -0.62 | – | – | 0.86 | 0.93 | – | 0.98 | 0.95 | 0.08 | 0.86 | – | 0.82 | 0.98 | -1 | – | – | – | Growth Rate (HEK-293T; 0 h, replicate number 2): 0.45; Growth Rate (HEK-293T; 18 h, replicate number 1): 0.87; Growth Rate (Fibroblast; 24 h, replicate number 1): 0.74 |
| COc1ccc(Cl)cc1[C@]1(F)C(=O)Nc2cc(C(F)(F)F)ccc21 [FLINDOKALNER] | 0.73 | – | – | – | – | 0.48 | 0.57 | 0.79 | 0.88 | 0.83 | 0.03 | -0.6 | – | 0.95 | 0.38 | 0.4 | -1 | 0.73 | 0.47 | -1 | Growth Rate (HEK-293T; 12 h, replicate number 1): 0.58; Growth Rate (HEK-293T; 18 h, replicate number 1): 0.42; Growth Rate (HEK-293T; 24 h, replicate number 1): 0.44; Growth Rate (Fibroblast; 12 h, replicate number 2): 0.2; Growth Rate (Fibroblast; 18 h, replicate number 2): 0.41; Growth Rate (Fibroblast; 24 h, replicate number 2): 0.58; Growth Rate (U2OS; 12 h, replicate number 2): 0.76 |
| O=C(O)CCC/C=C\C[C@@H]1[C@@H](/C=C/[C@@H](O)COc2cccc(C(F)(F)F)c2)[C@H](O)C[C@@H]1O [FLUPROSTENOL] | – | – | 0.89 | 0.61 | – | 0.95 | – | – | 0.9 | – | – | 0.15 | 0.86 | 0.91 | – | – | 0.5 | -0.11 | – | -0.58 | Growth Rate (HEK-293T; 0 h, replicate number 2): 0.68; Growth Rate (Fibroblast; 12 h, replicate number 2): 0.09; Growth Rate (Fibroblast; 18 h, replicate number 2): 0.18; Growth Rate (Fibroblast; 24 h, replicate number 1): 0.8; Growth Rate (Fibroblast; 24 h, replicate number 2): 0.44; Growth Rate (U2OS; 12 h, replicate number 2): 0.91 |
| Cc1nc2c([nH]1)c(=O)n(C)c(=O)n2Cc1ccco1 [FURAFYLLINE] | 0.19 | -0.99 | 0.5 | -0.64 | -0.96 | 0.59 | 0.95 | – | 1 | – | 0.63 | 0.42 | – | – | 0.76 | 0.82 | -1 | – | 0.88 | – | Growth Rate (HEK-293T; 12 h, replicate number 1): 0.18; Growth Rate (HEK-293T; 18 h, replicate number 1): 0.7; Growth Rate (HEK-293T; 24 h, replicate number 1): 0.87; Growth Rate (Fibroblast; 24 h, replicate number 1): 0.65 |
| COc1ccc(CCN(C)CCCC(C#N)(c2cc(OC)c(OC)c(OC)c2)C(C)C)cc1OC.Cl (stereo unspecified) [GALLOPAMIL HYDROCHLORIDE] | 0.31 | – | – | – | -0.88 | – | – | – | – | – | – | -0.5 | – | 1 | 0.97 | 0.94 | 0.03 | – | 0.94 | 0.16 | Growth Rate (HEK-293T; 12 h, replicate number 1): 0.9; Growth Rate (Fibroblast; 0 h, replicate number 1): -0.26; Growth Rate (Fibroblast; 12 h, replicate number 2): 0.12; Growth Rate (Fibroblast; 18 h, replicate number 2): 0.41; Growth Rate (Fibroblast; 24 h, replicate number 2): 0.73 |
| Cc1cccc(-c2nn3c(c2-c2ccnc4ccc(C(N)=O)cc24)CCC3)n1 [GALUNISERTIB] | – | -0.6 | – | -0.43 | 0.64 | – | 0.66 | 0.75 | 0.87 | 0.93 | 0.64 | – | 0.57 | 0.76 | 0.74 | 0.73 | – | -0.5 | 0.8 | – | Growth Rate (U2OS; 12 h, replicate number 2): 0.83 |
| CN[C@@H](C)C(=O)N[C@H](C(=O)N1CCC[C@H]1C(=O)Nc1snnc1-c1ccccc1)C1CCCCC1 [GDC-0152] | 0.13 | -0.71 | 0.81 | 0.23 | – | – | – | – | 0.98 | – | -0.14 | -0.88 | – | 0.98 | 0.05 | 0.07 | – | 0.81 | 0.07 | – | Growth Rate (HEK-293T; 12 h, replicate number 1): -0.36; Growth Rate (HEK-293T; 18 h, replicate number 1): -0.27; Growth Rate (HEK-293T; 24 h, replicate number 1): -0.26; Growth Rate (Fibroblast; 0 h, replicate number 1): -0.28; Growth Rate (U2OS; 12 h, replicate number 2): 0.89 |
| CN(C)CCCn1cc(C2=C(c3c[nH]c4ccccc34)C(=O)NC2=O)c2ccccc21 [GF-109203] | – | -0.49 | – | -0.01 | – | – | – | 0.94 | – | 0.8 | – | -0.72 | – | 0.82 | 0.81 | 0.99 | -1 | -0.26 | 0.98 | – | Growth Rate (HEK-293T; 0 h, replicate number 2): -0.46; Growth Rate (Fibroblast; 18 h, replicate number 2): 0.65; Growth Rate (Fibroblast; 24 h, replicate number 2): 0.41 |
| Cn1c2ccccc2c2c3c(c4c5ccccc5n(CCC#N)c4c21)CNC3=O [GO-6976] | 0.62 | – | – | – | -0.94 | – | – | 0.29 | 0.63 | 0.17 | 0.05 | -0.79 | – | 0.39 | -0.2 | -0.19 | -1 | -0.49 | -0.14 | – | Growth Rate (HEK-293T; 0 h, replicate number 2): -0.13; Growth Rate (HEK-293T; 12 h, replicate number 1): 0.69; Growth Rate (HEK-293T; 18 h, replicate number 1): 0.36; Growth Rate (HEK-293T; 24 h, replicate number 1): 0.7; Growth Rate (Fibroblast; 18 h, replicate number 2): 0.88; Growth Rate (Fibroblast; 24 h, replicate number 2): 0.48 |
| CC(=O)Nc1c(F)cc(C(=O)N[C@H]2CC[C@H](O)CC2)cc1O[C@@H](C)c1ccccc1 [GSK046] | – | 0.44 | 0.6 | -0.56 | 0.83 | 0.86 | 0.72 | 0.79 | 0.97 | 0.83 | 0.69 | 0.63 | -0.86 | 0.84 | 0.74 | – | 0.75 | 0.58 | 0.83 | 0.19 | Growth Rate (HEK-293T; 18 h, replicate number 1): 0.95; Growth Rate (HEK-293T; 24 h, replicate number 1): 0.71; Growth Rate (Fibroblast; 12 h, replicate number 2): 0.74; Growth Rate (Fibroblast; 18 h, replicate number 2): 0.93; Growth Rate (Fibroblast; 24 h, replicate number 1): 0.71; Growth Rate (Fibroblast; 24 h, replicate number 2): 1; Growth Rate (U2OS; 12 h, replicate number 2): 0.94 |
| CNC(=O)c1cc(C(=O)NC2CC2)cn(Cc2ccccc2)c1=O [GSK620] | – | – | – | -0.46 | – | 0.92 | 0.69 | 0.66 | – | 0.88 | 0.74 | – | 0.54 | – | 0.76 | 0.99 | – | -0.72 | 0.8 | 0.25 | Growth Rate (HEK-293T; 0 h, replicate number 2): 0.91; Growth Rate (HEK-293T; 24 h, replicate number 1): 0.93; Growth Rate (Fibroblast; 0 h, replicate number 1): 0.38 |
| COCc1nc2cnc3cc(-c4c(C)noc4C)c(OC[C@H]4CCNC4)cc3c2n1[C@H](C)c1ccccc1 [GSK778] | – | – | 0.73 | 0.09 | -1 | -0.84 | -0.64 | – | 0.74 | 1 | – | 0.26 | 0.78 | 0.7 | – | – | 0.63 | – | – | -0.01 | Growth Rate (HEK-293T; 0 h, replicate number 2): 0.24; Growth Rate (Fibroblast; 12 h, replicate number 2): 0.65; Growth Rate (Fibroblast; 24 h, replicate number 1): 0.98; Growth Rate (U2OS; 12 h, replicate number 2): 0.73 |
| Cc1cc2c(-c3ccco3)cnc(N[C@@H]3CCN(C)C[C@H]3C(=O)NC3CCCCC3)c2[nH]c1=O [GSK789] | – | – | – | -0.1 | – | 0.89 | 1 | – | – | – | – | 0.33 | 0.92 | 1 | – | – | – | 0.12 | – | 0 | – |
| Cc1cc2c(-c3ccco3)cnc(N[C@H]3CCN(C)C[C@@H]3C(=O)NC3CCCCC3)c2[nH]c1=O [GSK791] | – | – | – | -0.05 | – | – | -0.81 | – | – | – | – | 0.66 | – | – | – | – | 0.82 | – | – | 0.72 | Growth Rate (HEK-293T; 0 h, replicate number 2): -0.74 |

From ChEMBL document CHEMBL5303304, “EUbOPEN Chemogenomics Library - IncuCyte” (2023)
